Data: patent US20220087987A1, “A METHOD FOR TREATING SWI/SNF COMPLEX-DEFICIENT CANCERS COMPRISING GLUTATHIONE (GSH) METABOLIC PATHWAY INHIBITOR” (National Cancer Center, priority 2018, published 2022)

Legend:
[1] = system: ARID1A-deficient TOV21G OCCC xenografts; experiment: Mouse xenograft model, TOV21G; type: in vivo, mice; conditions: APR-246 50 mg/kg
Description: All mouse experiments were approved by the National Cancer Center (NCC) animal Ethical Committee. Cells were counted and re-suspended in a 1:1 mixture of 100 μl culture medium and 100 μl Matrigel (BD Biosciences) on ice. […] In the subcutaneous model, once the tumors were palpable (about 3-14 days after implantation), mice were randomly divided into two groups. […] In the doxycycline (Dox) treatment study, TOV21G-shNT cells and TOV21G-shGCLC cells were injected into the flanks of 6-week-old female BALB/c-nu/nu mice. […] In other experiments, TOV21G-shNT cells and TOV21G-shGCLC cells were treated with Dox (0.5 μg/ml) for 4 days and then injected into the flank of 6-week-old female BALB/c-nu/nu mice. […] Tumor growth was measured every several days using calipers. The volume of implanted tumors was calculated using the formula V=L×W2/2, where V is volume (mm^3), L is the largest diameter (mm), and W is the smallest diameter (mm). At the end of the experiment, mice were sacrificed in accordance with standard protocols.
GSH was detected using the GSH-Glo Assay (Promega). Tumor samples derived from xenografts were weighed and washed with PBS. The tumor samples were mixed with 50 μl of PBS and homogenized using a Mini Cordless Grinder (Funakoshi). PBS (950 μl) was added to homogenized tumor samples and centrifuged at 4° C. for 10 min at 15,000 rpm. Tumor extract and 2×GSH-Glo Reagent (25 μl of each) were mixed in white 96-well plates (Greiner) and incubated for 30 min at room temperature. Luciferin Detection Reagent (50 μl) was added and the samples were incubated for 15 min at room temperature. Luminescence was measured using an Envision Multi-label plate reader (PerkinElmer). GSH signal intensities per 1 mg of tumor sample were calculated.
Formalin-fixed, paraffin-embedded ovarian cancer clinical specimens and TOV21G xenografts were deparaffinized and representative whole 4-μm-thick sections were analyzed by IHC. […] The samples were removed from the freezer and equilibrated at −20° C. for approximately 15 minutes before sectioning. Tissue sections (6 μm thick) were placed on positively charged slides, dried, and fixed for 15 minutes at room temperature in 3% formaldehyde, followed by 5 minutes in methanol at −20° C. After fixation, representative sections were analyzed by IHC. […] All IHC staining was performed using a Dako autostainer Link48 (Dako).
First, membrane staining intensity (0, 1+, 2+, or 3+) was determined for each cell in a fixed field. The H-score was assigned using the following formula: [1×(% cells 1+)+2×(% cells 2+)+3×(% cells 3+)]. The final score, ranging from 0 to 300, gives more relative weight to higher-intensity membrane staining in a given tumor sample. The percentage of NOXA-, cleaved caspase-3-, cleaved PARP- and Ki67-positive cells (of the total number of cells) in each slide were counted.

[2] = system: diffuse-type gastric cancer PDCs; experiment: Cell viability of diffuse-type gastric cancer PDCs; type: cell-based, human; conditions: treatment for 6 days
[3] = system: ARID1A-KO cells and ARID1A-deficient cancer cells; experiment: Apoptosis detection (cleaved caspase-3/7, Annexin V); type: cell-based, human
Description: The Annexin V-FITC/PI Apoptosis Detection Kit (Sigma-Aldrich) was used to detect apoptotic cells. Briefly, the cell pellet was suspended in 1× binding buffer and then incubated with Annexin V-FITC and PI in the dark for 10 min. Fluorescence was analyzed on a Guava flow cytometer (Millipore). Data were analyzed using GuavaSoft software (v. 2.7). Relative ratios of the Annexin V-positive fraction in treated samples were normalized against untreated samples.
GSH, ROS and apoptosis were detected using the GSH/GSSG-Glo Assay (Promega) and/or the GSH-Glo Assay (Promega), the ROS-Glo Assay (Promega), and the Caspase-Glo 3/7 Assay, respectively. To measure levels of GSH, ROS and apoptosis after drug treatment, cells were trypsinized, counted, reseeded at the specified density in 96-well plates and exposed to the indicated concentrations of drugs. After 16-48 hrs, luminescence was measured using an Envision Multi-label plate reader (PerkinElmer). […] Cells were trypsinized after a further 48 hrs, counted, and reseeded at the specified density in 96-well plates. After 72-120 hrs, luminescence was measured using an Envision Multi-label plate reader (PerkinElmer). Cell viability was also measured using the CellTiter-Glo Luminescent Cell Viability Assay (Promega). […] The GSH/GSSG ratio was calculated as the GSH-GSSG signal divided by the GSSG/2 signal. […]

[4] = system: ARID1A-proficient and ARID1A-deficient cancer cell lines; experiment: Cell viability and colony formation in cancer cell line panel; type: cell-based, human; conditions: four ARID1A-proficient and six ARID1A-deficient cell lines; cell viability, colony formation
[5] = system: uterine cancer cell lines; experiment: Cell viability of uterine cancer cell lines; type: cell-based, human; conditions: treatment for 6 days
Description: Cell viability was examined by measuring the cellular ATP level using the CellTiter-Glo Luminescent Cell Viability Assay (Promega). To measure cell viability after siRNA-mediated knockdown, cell lines were transfected with siRNAs (25 nM) using Lipofectamine RNAiMAX. After 48 hrs, cells were trypsinized and repeatedly transfected with siRNAs (25 nM) using Lipofectamine RNAiMAX. Cells were trypsinized after a further 48 hrs, counted, and reseeded at the specified density in 96-well plates. To measure cell viability after drug treatment, cells were trypsinized, counted, reseeded at the specified density in 96-well plates, and exposed to the indicated concentrations of drugs. Cell viability was measured using the CellTiter-Glo Luminescent Cell Viability Assay. Luminescence was measured using an Envision Multi-label plate reader (PerkinElmer).

COCC1(CO)C(=O)C2CCN1CC2 (stereo not shown) [APR-246]
GSH level in xenograft cells [1]: decreased | apoptotic markers NOXA, cleaved PARP, cleaved caspase-3 and proliferation marker Ki67 (IHC) [1]: markedly increased expression of the apoptotic markers NOXA, cleaved PARP, and cleaved caspase-3, and decreased expression of the cell proliferation marker Ki67 | oxidative stress marker 8-OHdG (IHC, H-score) [1]: increased the level of the oxidative stress marker 8-hydroxy-2′-deoxyguanosine (8-OHdG) markedly | tumor weight ([1]; BSO 750 mg/kg): reduced | body weight of mice ([1]; BSO 750 mg/kg once a day): did not cause significant loss of body weight | growth of xenografts (tumor volume) ([1]; intraperitoneally once daily 12-14 days, BSO 750 mg/kg): significantly suppressed the growth | IC50 values in ARID1A-deficient versus ARID1A-proficient PDCs [2]: markedly lower in ARID1A-deficient PDCs than in ARID1A-proficient PDCs | apoptosis (caspase activation, Annexin V) [3]: induced apoptosis | sensitivity of ARID1A-deficient versus ARID1A-proficient cancer cells [4]: more sensitive to APR-246 than ARID1A-proficient cancer cells | IC50 values in ARID1A-deficient versus ARID1A-proficient uterine cancer cell lines [5]: markedly lower in three ARID1A-deficient cell lines than in two ARID1A-proficient cell lines
